Data: the NIST ThermoML archive (doi:10.1016/j.fluid.2008.07.004)
Numbers after ± are expanded uncertainties.

Details: Liquid

Structure (SMILES) | vapor or sublimation pressure (330.05 K) | vapor or sublimation pressure (352.65 K)
COC(C)=O [methyl ethanoate] | 101.3 ± 3.6 kPa | 
CCC(=O)OC [methyl propanoate] |  | 101.3 ± 4 kPa
